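In this assay, cells in 96-well plates receive the compound at five concentrations for 48 hours. Endpoints are linearly interpolated between the surrounding concentrations. TGI is the concentration that stops growth completely.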
Tests used:
Experiment in all cases: inhibition of tumour cell growth, NCI panel, 48 h
BT-549 breast = test system: BT-549 breast
OVCAR-8 ovarian = test system: OVCAR-8 ovarian
SR leukemia = test system: SR leukemia
IGROV1 ovarian = test system: IGROV1 ovarian
MOLT-4 leukemia = test system: MOLT-4 leukemia
NCI-H522 lung = test system: NCI-H522 lung
MDA-MB-231 breast = test system: MDA-MB-231 breast
PC-3 prostate = test system: PC-3 prostate
HS 578T breast = test system: HS 578T breast
TK-10 renal = test system: TK-10 renal
SF-295 CNS = test system: SF-295 CNS
MCF7 breast = test system: MCF7 breast
UO-31 renal = test system: UO-31 renal
OVCAR-3 ovarian = test system: OVCAR-3 ovarian
NCI-H460 lung = test system: NCI-H460 lung
RXF 393 renal = test system: RXF 393 renal
UACC-62 melanoma = test system: UACC-62 melanoma
SF-539 CNS = test system: SF-539 CNS
SN12C renal = test system: SN12C renal
HCT-15 colon = test system: HCT-15 colon
HCC-2998 colon = test system: HCC-2998 colon
ACHN renal = test system: ACHN renal
LOX IMVI melanoma = test system: LOX IMVI melanoma
COLO 205 colon = test system: COLO 205 colon
KM12 colon = test system: KM12 colon
OVCAR-5 ovarian = test system: OVCAR-5 ovarian
UACC-257 melanoma = test system: UACC-257 melanoma
SK-MEL-2 melanoma = test system: SK-MEL-2 melanoma
NCI-H23 lung = test system: NCI-H23 lung
MDA-N = test system: MDA-N
HOP-62 NSCLC = test system: HOP-62 NSCLC
HL-60(TB) leukemia = test system: HL-60(TB) leukemia
DU-145 prostate = test system: DU-145 prostate
SNB-75 CNS = test system: SNB-75 CNS
MDA-MB-435 = test system: MDA-MB-435
SNB-19 CNS = test system: SNB-19 CNS
HT29 colon = test system: HT29 colon
U251 CNS = test system: U251 CNS
MALME-3M melanoma = test system: MALME-3M melanoma
SK-MEL-5 melanoma = test system: SK-MEL-5 melanoma
EKVX NSCLC = test system: EKVX NSCLC
SF-268 CNS = test system: SF-268 CNS
K-562 leukemia = test system: K-562 leukemia
786-0 renal = test system: 786-0 renal
NCI/ADR-RES ovarian = test system: NCI/ADR-RES ovarian
A549 NSCLC = test system: A549 NSCLC
CCRF-CEM leukemia = test system: CCRF-CEM leukemia
SK-MEL-28 melanoma = test system: SK-MEL-28 melanoma
RPMI-8226 leukemia = test system: RPMI-8226 leukemia
SW-620 colon = test system: SW-620 colon
HCT-116 colon = test system: HCT-116 colon
OVCAR-4 ovarian = test system: OVCAR-4 ovarian
T-47D breast = test system: T-47D breast
M14 melanoma = test system: M14 melanoma
HOP-92 NSCLC = test system: HOP-92 NSCLC
SK-OV-3 ovarian = test system: SK-OV-3 ovarian

Work on `CNc1nc(N)c(N=O)c(Nc2ccc(Br)cc2)n1` yielded a TGI (BT-549 breast) of over 100 µM, a TGI (OVCAR-8 ovarian) of over 100 µM and a TGI (SR leukemia) of over 100 µM. It also gave a TGI (IGROV1 ovarian) of over 100 µM, a TGI (MOLT-4 leukemia) of over 100 µM and a TGI (NCI-H522 lung) of over 100 µM. The TGI (MDA-MB-231 breast) was over 100 µM, the TGI (PC-3 prostate) was over 100 µM and the TGI (HS 578T breast) was 65 µM. For the same molecule, the TGI (TK-10 renal) was over 100 µM, the TGI (SF-295 CNS) was over 100 µM and the TGI (MCF7 breast) was over 100 µM. It also gave a TGI (UO-31 renal) of over 100 µM, a TGI (OVCAR-3 ovarian) of over 100 µM and a TGI (NCI-H460 lung) of over 100 µM. For the same molecule, the TGI (RXF 393 renal) was over 100 µM, the TGI (UACC-62 melanoma) was over 100 µM and the TGI (SF-539 CNS) was over 100 µM. For the same molecule, the TGI (SN12C renal) was over 100 µM, the TGI (HCT-15 colon) was over 100 µM and the TGI (HCC-2998 colon) was over 100 µM. For the same molecule, the TGI (ACHN renal) was over 100 µM, the TGI (LOX IMVI melanoma) was over 100 µM and the TGI (COLO 205 colon) was over 100 µM. The TGI (KM12 colon) was over 100 µM, the TGI (OVCAR-5 ovarian) was over 100 µM and the TGI (UACC-257 melanoma) was over 100 µM. It also gave a TGI (SK-MEL-2 melanoma) of over 100 µM, a TGI (NCI-H23 lung) of over 100 µM and a TGI (MDA-N) of over 100 µM. It also gave a TGI (HOP-62 NSCLC) of over 100 µM, a TGI (HL-60(TB) leukemia) of over 100 µM and a TGI (DU-145 prostate) of over 100 µM. The TGI (SNB-75 CNS) was over 100 µM, the TGI (MDA-MB-435) was over 100 µM and the TGI (SNB-19 CNS) was over 100 µM. For the same molecule, the TGI (HT29 colon) was over 100 µM, the TGI (U251 CNS) was over 100 µM and the TGI (MALME-3M melanoma) was over 100 µM. For the same molecule, the TGI (SK-MEL-5 melanoma) was over 100 µM, the TGI (EKVX NSCLC) was over 100 µM and the TGI (SF-268 CNS) was over 100 µM. It also gave a TGI (K-562 leukemia) of over 100 µM, a TGI (786-0 renal) of over 100 µM and a TGI (NCI/ADR-RES ovarian) of over 100 µM. It also gave a TGI (A549 NSCLC) of over 100 µM, a TGI (CCRF-CEM leukemia) of over 100 µM and a TGI (SK-MEL-28 melanoma) of over 100 µM. The TGI (RPMI-8226 leukemia) was over 100 µM, the TGI (SW-620 colon) was over 100 µM and the TGI (HCT-116 colon) was over 100 µM.
`COc1cc(/C=C2\CN(C)CC3=C2NC(=S)NC3c2cc(OC)c(OC)c(OC)c2)cc(OC)c1OC` (stereo not drawn) showed a TGI (OVCAR-4 ovarian) of over 100 µM, a TGI (OVCAR-8 ovarian) of over 100 µM and a TGI (SR leukemia) of over 100 µM. It also gave a TGI (IGROV1 ovarian) of over 100 µM, a TGI (MOLT-4 leukemia) of over 100 µM and a TGI (NCI-H522 lung) of over 100 µM. The TGI (MDA-MB-231 breast) was over 100 µM, the TGI (PC-3 prostate) was over 100 µM and the TGI (T-47D breast) was over 100 µM. It also gave a TGI (HS 578T breast) of over 100 µM, a TGI (SF-295 CNS) of over 100 µM and a TGI (OVCAR-3 ovarian) of over 100 µM. The TGI (NCI-H460 lung) was over 100 µM, the TGI (UACC-62 melanoma) was over 100 µM and the TGI (SN12C renal) was over 100 µM. The TGI (HCT-15 colon) was over 100 µM, the TGI (M14 melanoma) was over 100 µM and the TGI (ACHN renal) was over 100 µM. For the same molecule, the TGI (LOX IMVI melanoma) was over 100 µM, the TGI (COLO 205 colon) was over 100 µM and the TGI (UACC-257 melanoma) was over 100 µM. It also gave a TGI (SK-MEL-2 melanoma) of over 100 µM, a TGI (MDA-N) of over 100 µM and a TGI (HOP-92 NSCLC) of over 100 µM. The TGI (HOP-62 NSCLC) was over 100 µM, the TGI (DU-145 prostate) was over 100 µM and the TGI (SNB-75 CNS) was over 100 µM. The TGI (HT29 colon) was over 100 µM, the TGI (MALME-3M melanoma) was over 100 µM and the TGI (SK-MEL-5 melanoma) was 65.7 µM. It also gave a TGI (EKVX NSCLC) of over 100 µM, a TGI (SF-268 CNS) of over 100 µM and a TGI (786-0 renal) of over 100 µM. It also gave a TGI (NCI/ADR-RES ovarian) of over 100 µM, a TGI (A549 NSCLC) of over 100 µM and a TGI (SW-620 colon) of over 100 µM. For the same molecule, the TGI (SK-OV-3 ovarian) was over 100 µM.

Reference: PubChem BioAssay (NCI)
